Data published in US9932354B2, “Imidazo-oxadiazole and imidazo-thiadiazole derivatives” (Ares Trading S.A., priority 2012, dated 2018).

Assays:
[1] = tested on: Amyloid-β peptide release (AβTotal), HEK cells overexpressing APP (HEK-APP); assay: Amyloid-β peptide release (AβTotal) assay, AlphaLISA on supernatant of HEK-APP cells; assay type: cell-based; details: ratio Abtot vs Ab42, HEK-APP cells, 24 h
Description: (§1) Amyloid-β Peptide Release (Aβ42 & AβTotal) Assay to Determine IC50 Values.
(§2) Compounds are dissolved in and diluted in 100% DMSO and incubated with HEK-APP cells for 24 h at 37° C. in 5% CO2. The supernatant from HEK-APP cells are mixed with antibodies: for Aβ42 detection: AlphaLISA Amyloid-β 1-42 Kit (Perkin Elmer AL203L) Anti-Amyloid β1-42-specific antibody acceptor beads, biotinylated anti-Amyloid-“β1-42” antibody and streptavidin (SA) donor beads diluted in AlphaLISA buffer (to the instructions of the supplier). For Aβ total detection: Custom Anti-Amyloid-βtotal acceptor beads (6E10 acceptor beads), biotinylated anti-Amyloid “β1-42” antibody (Perkin Elmer AL203L) and streptavidin (SA) donor beads diluted in AlphaLISA buffer (to the instructions of the supplier). After addition of supernatant to the antibody mix, the assay is incubated for 4.5 h. Amyloid-β peptide release (Aβ42 & AβTotal) is measured with a Pherastar FS (BMG) multimode reader using the alphascreen module.

[2] = tested on: Amyloid-β peptide release (Aβ42), HEK cells overexpressing APP (HEK-APP); assay: Amyloid-β peptide release (Aβ42) assay, AlphaLISA on supernatant of HEK-APP cells; assay type: cell-based; details: Homo sapiens, HEK293, 24 h incubation with compound, read-out: Ab42 IC50 Ranges
Description: as §1, §2

SMILES	Abtot/Ab42 selectivity ranges [1]	IC50 [2] [nM]
Cc1ncc2oc(-c3ccc(NC(=O)Nc4cccc(C(F)(F)F)c4)cc3)nn12 [Example 52, 1-[4-(5-Methyl-imidazo[5,1-b][1,2,4]oxadiazol-2-yl)-phenyl]-3-(3-trifluoromethyl-phenyl)-urea]	d (d: 10 fold > selectivity)	1000 to 2200
COc1ccccc1CC(=O)Nc1ccc(-c2nn3c(C)ncc3o2)cc1 [Example 53, 2-(2-Methoxy-phenyl)-N-[4-(5-methyl-imidazo[5,1-b][1,2,4]oxadiazol-2-yl)-phenyl]-acetamide]	d (d: 10 fold > selectivity)	1000 to 2200
Cc1ncc2oc(-c3ccc(NC(=O)NCc4ccccc4Cl)cc3)nn12 [Example 54, 1-(2-Chloro-benzyl)-3-[4-(5-methyl-imidazo[5,1-b][1,2,4]oxadiazol-2-yl)-phenyl]-urea]	c (c: 50 fold > selectivity ≥ 10 fold)	1000 to 2200
Cc1ncc2oc(-c3ccc(NC(=O)C(C)c4cccc(C(F)(F)F)c4)cc3)nn12 (centres unmarked) [Example 55, N-(4-(5-methylimidazo[5,1-b][1,3,4]oxadiazol-2-yl)phenyl)-2-(3-(trifluoromethyl)phenyl)propanamide]	c (c: 50 fold > selectivity ≥ 10 fold)	1000 to 2200
Cc1ncc2oc(-c3ccc(NC(=O)Cc4ccc(-c5ccccc5)cc4)cc3)nn12 [Example 56, 2-Biphenyl-4-yl-N-[4-(5-methyl-imidazo[5,1-b][1,2,4]oxadiazol-2-yl)-phenyl]-acetamide]	a (a: selectivity ≥ 100 fold)	100 to 500
Cc1ncc2oc(-c3ccc(NC(=O)Cc4ccc(C(C)(C)C)cc4)cc3)nn12 [Example 57, 2-(4-tert-Butyl-phenyl)-N-[4-(5-methyl-imidazo[5,1-b][1,2,4]oxadiazol-2-yl)-phenyl]-acetamide]	b (b: 100 fold > selectivity ≥ 50 fold)	500 to 1000
Cc1ncc2oc(-c3ccc(NC(=O)Nc4ccccc4C(F)(F)F)cc3)nn12 [Example 58, 1-[4-(5-Methyl-imidazo[5,1-b][1,2,4]oxadiazol-2-yl)-phenyl]-3-(2-trifluoromethyl-phenyl)-urea]	d (d: 10 fold > selectivity)	500 to 1000
Cc1ncc2oc(-c3ccc(NC(=O)Nc4ccc(OC(F)(F)F)cc4)cc3)nn12 [Example 59, 1-[4-(5-Methyl-imidazo[5,1-b][1,2,4]oxadiazol-2-yl)-phenyl]-3-(4-trifluoromethoxy-phenyl)-urea]	c (c: 50 fold > selectivity ≥ 10 fold)	1000 to 2200
Cc1ccccc1CC(=O)Nc1ccc(-c2nn3c(C)ncc3o2)cc1 [Example 60, N-[4-(5-Methyl-imidazo[5,1-b][1,2,4]oxadiazol-2-yl)-phenyl]-2-o-tolyl-acetamide]	c (c: 50 fold > selectivity ≥ 10 fold)	1000 to 2200
Cc1ncc2oc(-c3ccc(NC(=O)Cc4cc(F)cc(F)c4F)cc3)nn12 [Example 61, N-(4-(5-methylimidazo[5,1-b][1,3,4]oxadiazol-2-yl)phenyl)-2-(2,3,5-trifluorophenyl)acetamide]	b (b: 100 fold > selectivity ≥ 50 fold)	500 to 1000
Cc1ncc2oc(-c3ccc(NC(=O)Cc4ccc(Cl)cc4Cl)cc3)nn12 [Example 62, 2-(2,4-dichlorophenyl)-N-(4-(5-methylimidazo[5,1-b][1,3,4]oxadiazol-2-yl)phenyl)acetamide]	b (b: 100 fold > selectivity ≥ 50 fold)	500 to 1000
Cc1ncc2oc(-c3ccc(NC(=O)Cc4cccc(Cl)c4)cc3)nn12 [Example 63, 2-(3-chlorophenyl)-N-(4-(5-methylimidazo[5,1-b][1,3,4]oxadiazol-2-yl)phenyl)acetamide]	b (b: 100 fold > selectivity ≥ 50 fold)	500 to 1000
Cc1ncc2oc(-c3ccc(NC(=O)Cc4cccc(C#N)c4)cc3)nn12 [Example 64, 2-(3-cyanophenyl)-N-(4-(5-methylimidazo[5,1-b][1,3,4]oxadiazol-2-yl)phenyl)acetamide]	b (b: 100 fold > selectivity ≥ 50 fold)	500 to 1000
Cc1ncc2oc(-c3ccc(NC(=O)Cc4ccc(F)cc4Cl)cc3)nn12 [Example 65, 2-(2-chloro-4-fluorophenyl)-N-(4-(5-methylimidazo[5,1-b][1,3,4]oxadiazol-2-yl)phenyl)acetamide]	c (c: 50 fold > selectivity ≥ 10 fold)	1000 to 2200
Cc1ncc2oc(-c3ccc(NC(=O)Cc4cc(F)ccc4C(F)(F)F)cc3)nn12 [Example 66, 2-(5-fluoro-2-(trifluoromethyl)phenyl)-N-(4-(5-methylimidazo [5,1-b][1,3,4]oxadiazol-2-yl)phenyl)acetamide]	c (c: 50 fold > selectivity ≥ 10 fold)	1000 to 2200
Cc1ncc2oc(-c3ccc(NC(=O)Cc4c(Cl)cc(C(F)(F)F)cc4Cl)cc3)nn12 [Example 67, 2-(2,6-dichloro-4-(trifluoromethyl)phenyl)-N-(4-(5-methylimidazo [5,1-b][1,3,4]oxadiazol-2-yl)phenyl)acetamide]	c (c: 50 fold > selectivity ≥ 10 fold)	1000 to 2200
COc1c(F)ccc(CC(=O)Nc2ccc(-c3nn4c(C)ncc4o3)cc2)c1F [Example 68, 2-(2,4-difluoro-3-methoxyphenyl)-N-(4-(5-methylimidazo[5,1-b][1,3,4]oxadiazol-2-yl)phenyl)acetamide]	b (b: 100 fold > selectivity ≥ 50 fold)	500 to 1000
COc1ccc(Cl)c(CC(=O)Nc2ccc(-c3nn4c(C)ncc4o3)cc2)c1F [Example 69, 2-(6-chloro-2-fluoro-3-methoxyphenyl)-N-(4-(5-methylimidazo [5,1-b][1,3,4]oxadiazol-2-yl)phenyl)acetamide]	b (b: 100 fold > selectivity ≥ 50 fold)	500 to 1000
Cc1ncc2oc(-c3ccc(NC(=O)Cc4cccc(OCc5ccccc5)c4)cc3)nn12 [Example 70, 2-(3-(benzyloxy)phenyl)-N-(4-(5-methylimidazo[5,1-b][1,3,4]oxadiazol-2-yl)phenyl)acetamide]	c (c: 50 fold > selectivity ≥ 10 fold)	1000 to 2200
Cc1ncc2oc(-c3ccc(NC(=O)Cc4cccc5ccccc45)cc3)nn12 [Example 71, N-(4-(5-methylimidazo[5,1-b][1,3,4]oxadiazol-2-yl)phenyl)-2-(naphthalen-1-yl)acetamide]	b (b: 100 fold > selectivity ≥ 50 fold)	500 to 1000
Cc1ncc2oc(-c3ccc(Nc4ccnc(NCc5ccccc5)n4)cc3)nn12 [Example 72, N2-benzyl-N4-(4-(5-methylimidazo[5,1-b][1,3,4]oxadiazol-2-yl)phenyl)pyrimidine-2,4-diamine]	d (d: 10 fold > selectivity)	1000 to 2200
Cc1ncc2oc(-c3ccc(NC(=O)Cc4csc5ccc(Cl)cc45)cc3)nn12 [Example 73, 2-(5-chlorobenzo[b]thiophen-3-yl)-N-(4-(5-methylimidazo[5,1-b] [1,3,4]oxadiazol-2-yl)phenyl)acetamide]	c (c: 50 fold > selectivity ≥ 10 fold)	1000 to 2200
Cc1ncc2oc(-c3ccc(Nc4nccc(NCc5ccccc5C(F)(F)F)n4)cc3)nn12 [Example 74, N2-(4-(5-methylimidazo[5,1-b][1,3,4]oxadiazol-2-yl)phenyl)-N4-(2-(trifluoromethyl)benzyl)pyrimidine-2,4-diamine]	d (d: 10 fold > selectivity)	1000 to 2200
Cc1cccc(CNc2ccnc(Nc3ccc(-c4nn5c(C)ncc5o4)cc3)n2)c1 [Example 75, N4-(3-methylbenzyl)-N2-(4-(5-methylimidazo[5,1-b][1,3,4]oxadiazol-2-yl)phenyl)pyrimidine-2,4-diamine]	d (d: 10 fold > selectivity)	1000 to 2200
Cc1ncc2oc(-c3ccc(Nc4nccc(NCc5cccc(C(F)(F)F)c5)n4)cc3)nn12 [Example 76, N2-(4-(5-methylimidazo[5,1-b][1,3,4]oxadiazol-2-yl)phenyl)-N4-(3-(trifluoromethyl)benzyl) pyrimidine-2,4-diamine]	d (d: 10 fold > selectivity)	1000 to 2200
Cc1ncc2oc(-c3ccc(NC(=O)Cc4ccc(Cl)c(Cl)c4)cc3)nn12 [Example 77, 2-(3,4-dichlorophenyl)-N-(4-(5-methylimidazo[5,1-b][1,3,4]oxadiazol-2-yl)phenyl)acetamide]	a (a: selectivity ≥ 100 fold)	100 to 500
Cc1ncc2oc(-c3ccc(NC(=O)Cc4ccc(Oc5ccccc5)cc4)cn3)nn12 [Example 78, N-[6-(5-Methyl-imidazo[5,1-b][1,2,4]oxadiazol-2-yl)-pyridin-3-yl]-2-(4-phenoxy-phenyl)-acetamide]	c (c: 50 fold > selectivity ≥ 10 fold)	1000 to 2200
Cc1ncc2oc(-c3ccc(NC(=O)Cc4cccc(F)c4F)cn3)nn12 [Example 79, 2-(2,3-Difluoro-phenyl)-N-[6-(5-methyl-imidazo[5,1-b][1,2,4]oxadiazol-2-yl)-pyridin-3-yl]-acetamide]	c (c: 50 fold > selectivity ≥ 10 fold)	1000 to 2200
